This is an account of results in patent publication US20120058112A1, “ANTIBODIES” (priority 2009, published 2012).

In assay [1] the test system is PI3K pathway (P-AKT, PS6K, PS6RP). The assay can be described thus: PI3K pathway western blot in xenograft tumors. Set-up: species or system nu/nu mice. As to conditions: following MK-0646 treatment, previous in vivo data. As to the method: (§1) Methods: Total protein (500 microgram) from xenograft samples was isolated at the end of the efficacy study (4 weeks after indicated doses). Samples from 6 independent tumors were analyzed for east treatment. The proteins were western blotted and visualized as described previously (See FIG. 2).

The subject of another assay is lung cancer cell lines. The assay can be described thus: Proliferation assay (Cyquant DNA content), adherent (2D) conditions. It counts as cell-based. The following applies: adherent (2D) growth conditions.
The test system of the next assay is IGF1R. Description: Total IGF1R level in xenograft tumors (western blot / ELISA). It is filed as in vivo, nu/nu mice. As to the method: as §1
(A western blot detects proteins with antibodies after separation by electrophoresis.)

The test system of assay [2] is NSCLC. As to conditions: standard chemotherapy plus EGFR inhibitor; cited from earlier work.
The test system of assay [3] is human mammary carcinoma which expresses EGFR. As to conditions: mouse, in vivo; cited from earlier work.
Assay [4] concerns carcinoma which does not express the EGF receptor. The following applies: mouse, in vivo; cited from earlier work.
The subject of assay [5] is NSCLC. The following applies: cancer no longer responding to chemotherapy; cited from earlier work.
For assay [6] the following is noted: cited from earlier work.
The test system of assay [7] is NSCLC. As to conditions: phase II, previously treated NSCLC patients, 2004; cited from earlier work.

Method for lung cancer cell lines: Summary: To test the functional effect of inhibiting both EGFR & IGFIR signaling, the growth inhibition under adherent (2D) and non adherent (3D) conditions were evaluated. […] In order to test the effect of this combination under 3D non-adherent conditions, the inventors developed an ultra low attachment plate based proliferation assay.
Methods: Cells (˜3×10̂3) were seeded in adherent or non-adherent (ultra-low attachment plates; Corning) 96 well plates. […] The media and drugs were slowly replaced every 3 days and at the end of the assay (as indicated) plates were harvested and DNA content was measured using Cyquant assays as described by the manufacturer. The intrinsic growth was calculated based on the increase in DNA content from Day 1 to the end of the assay.

For the molecule “MK-0646: humanized antibody that binds IGF-1R as well as the IR/IGF-1 hybrid receptor”, the P13K pathway entry in [1] is reported as “inhibition was also observed”. The growth inhibition entry in the assay with lung cancer cell lines is “no significant growth inhibition”. Moreover, in the assay with IGF1R (compared to vehicle or Erlotinib alone, FIG. 6), the “total levels of IGF1R” value is on record as “able to reduce the total levels of IGF1R”. Further, the IGF1R receptor level entry with IGF1R (previous in vivo data, NCI-H2122 xenograft) was “down regulation”.
`COc1cc2ncnc(Nc3ccc(F)c(Cl)c3)c2cc1OCCCN1CCOCC1` [gefitinib]: the “outcome versus chemotherapy alone” value with NSCLC [2] was “did no better”.
For `O=CN/C=C/c1cc(O)ccc1O` [erbstatin], the tumor growth result was “selectively attenuates the growth” in [3] and “without effect” in [4].
On to `C#Cc1cccc(Nc2ncnc3cc(OCCOC)c(OCCOC)cc23)c1.Cl` [Erlotinib], for which the survival versus placebo result with NSCLC [5] is reported as “about two months longer”. In addition, in the assay with NSCLC [2], the “outcome versus chemotherapy alone” value was “did no better”. Also, the overall survival benefit entry in assay [6] (in vivo) is on record as “did not help patients live any longer overall”. Besides, the time to progression in assay [6] (placebo group 4.9 months) is 5.1 months. In addition, the median survival in [6] (placebo group 10.5 months) is on record as 10.6 months. The “participants whose tumors responded to treatment” value in the assay with NSCLC [7] was 12%.
